Data published in patent US7754765B2, “Copper chelators for treating ocular inflammation” (Radical Vision Therapeutics Inc, priority 2000, dated 2010).

What was measured:
retina [1] = experiment: Retinal thickness (edema) after laser photocoagulation in rats; format: in vivo, Long-Evans rats; details: 0.5 mmol/kg/day intraperitoneally; for retinal thickness, greater than that in normal retina: saline control 50%; for retinal thickness (edema) compared with control (saline injected), in words: day 1 post photocoagulation
[2] = system: ED-1 immunoreactive (macrophage) cells in retina; experiment: ED-1 (macrophage) immunostaining of retina after photocoagulation in rats; format: in vivo; details: vs saline injected; for number of ED-1 positive retina cells relative to controls (in words): 24 hours after laser treatment; for number of ED-1 positive cells, times less than control: Day 1 post photocoagulation, average of four 40× objective fields
retina [3] = experiment: Retinal thickness (edema) after PDT (verteporfin) in rabbits; format: in vivo, Pigmented rabbits; details: for retinal thickness, greater than that in normal retina: 24 hours after PDT, 0.2 mmol/kg/day intramuscularly, saline control 140%; for retinal thickness (edema) compared with control (saline injected), in words: day 1 post PDT, TRIEN or TETREN (0.2 mM/day)

| Compound | retinal thickness, greater than that in normal retina (retina [1]; 24 hours post photocoagulation) | retinal thickness (edema) compared with control (saline injected), in words (retina [1]) | number of ED-1 positive retina cells relative to controls (in words) [2] | number of ED-1 positive cells, times less than control [2] | retinal thickness, greater than that in normal retina (retina [3]) | retinal thickness (edema) compared with control (saline injected), in words (retina [3]) | retinal thickness, greater than that in the control animals (saline injected) (retina [1]; 24 hours post photocoagulation) | retinal thickness (edema) compared with control (saline injected), in words (retina [1]; listed as DPA) |
| --- | --- | --- | --- | --- | --- | --- | --- | --- |
| NCCNCCNCCN [TRIEN, triethylenetetramine] | 23% | retinal thickness of eyes from control animals (saline injected) is greater | approximately half that of the controls | two times less | 50% | significantly less than that in control | – | – |
| CC(C)(S)[C@@H](N)C(=O)O [D-PA, D-penicillamine] | 85% | greater than that in control eyes | – | – | – | – | 35% | showed the opposite effect |
| NCCNCCNCCNCCN [TETREN, tetraethylenepentamine] | 26% | retinal thickness of eyes from control animals (saline injected) is greater | more than half that of control animals | 2.5 times | 45% | significantly less than that in control | – | – |
